Laboratory results reported in the supplement of paper PMC10307832.

Compound: Cc1cc([C@@H](C)Nc2ccccc2C(=O)O)c2nc(N3CCOCC3)cc(=O)n2c1 [AZD6482] + Cc1nc(Nc2ncc(C(=O)Nc3c(C)cccc3Cl)s2)cc(N2CCN(CCO)CC2)n1 [Dasatinib] (partner 0.075 µM)
Test: relative viability (nuclei count vs DMSO), 5 days (fraction); higher = more cells survive
Conditions: first compound 0.253 µM
Summary of the method: (§1)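 A single step with final 0.05% Triton X-100, 1% formaldehyde and 1 ug/ml Hoechst fixed the cells and stained nuclei 5 days after treatment. Lung cancer cell lines in 1536-well plates had been treated by pin tool the day after seeding with one drug alone or a fixed anchor-drug dose plus five library-drug doses (not always all listed) in √10 steps, and nuclei were counted on 4× images. Relative viability is the ratio of nuclei in treated wells to nuclei in vehicle wells, taken as the median of duplicate plates.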

Row | Cell Line | relative viability
1 | NCI-H2342 | 0.292
2 | NCI-H1623 | 0.524
3 | NCI-H727 | 0.41
4 | NCI-H1650 | 0.278
5 | NCI-H1993 | 0.543
6 | SW 1573 | 0.357
7 | NCI-H838 | 0.248
8 | LCLC-103H | 0.359
9 | NCI-H520 | 0.153
10 | NCI-H2126 | 0.578
11 | EMC-BAC-2 | 0.327
12 | NCI-H2085 | 0.159
13 | HCC-366 | 0.564
14 | NCI-H1666 | 0.845
15 | NCI-H596 | 0.586
16 | LK-2 | 0.286
17 | NCI-H2087 | 0.822
18 | SK-MES-1 | 0.235
19 | H3255 | 0.342
20 | COR-L23 | 0.374
21 | NCI-H2170 | 0.424
22 | NCI-H522 | 0.783
23 | SW 900 | 0.419
24 | NCI-H1395 | 0.346
25 | NCI-H1792 | 0.703
26 | NCI-H1793 | 0.34
27 | NCI-H1563 | 0.479
28 | NCI-H1944 | 0.191
29 | ABC-1 | 0.591
30 | NCI-H358 | 0.186

Same assay, conditions: first compound 0.8 µM

Row | Cell Line | relative viability
31 | NCI-H2342 | 0.34
32 | NCI-H1623 | 0.457
33 | NCI-H727 | 0.41
34 | NCI-H1650 | 0.316
35 | NCI-H1993 | 0.442
36 | SW 1573 | 0.328
37 | NCI-H838 | 0.257
38 | LCLC-103H | 0.224
39 | NCI-H520 | 0.138
40 | NCI-H2126 | 0.568
41 | EMC-BAC-2 | 0.275
42 | NCI-H2085 | 0.21
43 | HCC-366 | 0.733
44 | NCI-H1666 | 0.906
45 | NCI-H596 | 0.601
46 | LK-2 | 0.327
47 | NCI-H2087 | 0.951
48 | SK-MES-1 | 0.169
49 | H3255 | 0.476
50 | COR-L23 | 0.47
51 | NCI-H2170 | 0.585
52 | NCI-H522 | 0.879
53 | SW 900 | 0.462
54 | NCI-H1395 | 0.357
55 | NCI-H1792 | 0.862
56 | NCI-H1793 | 0.351
57 | NCI-H1563 | 0.442
58 | NCI-H1944 | 0.238
59 | ABC-1 | 0.699
60 | NCI-H358 | 0.132

Same assay, conditions: first compound 2.53 µM

Row | Cell Line | relative viability
61 | NCI-H2342 | 0.277
62 | NCI-H1623 | 0.426
63 | NCI-H727 | 0.266
64 | NCI-H1650 | 0.234
65 | NCI-H1993 | 0.348
66 | SW 1573 | 0.239
67 | NCI-H838 | 0.218
68 | LCLC-103H | 0.251
69 | NCI-H520 | 0.144
70 | NCI-H2126 | 0.284
71 | EMC-BAC-2 | 0.257
72 | NCI-H2085 | 0.198
73 | HCC-366 | 0.271
74 | NCI-H1666 | 0.737
75 | NCI-H596 | 0.514
76 | LK-2 | 0.26
77 | SK-MES-1 | 0.125
78 | H3255 | 0.345
79 | COR-L23 | 0.292
80 | NCI-H2170 | 0.544
81 | NCI-H522 | 0.974
82 | NCI-H1395 | 0.29
83 | NCI-H1792 | 0.569
84 | NCI-H1793 | 0.249
85 | NCI-H1563 | 0.449
86 | NCI-H1944 | 0.172
87 | ABC-1 | 0.496
88 | NCI-H358 | 0.0881

Same assay, conditions: first compound 8 µM

Row | Cell Line | relative viability
89 | NCI-H2342 | 0.31
90 | NCI-H1623 | 0.395
91 | NCI-H727 | 0.395
92 | NCI-H1650 | 0.318
93 | NCI-H1993 | 0.542
94 | SW 1573 | 0.206
95 | NCI-H838 | 0.28
96 | LCLC-103H | 0.225
97 | NCI-H520 | 0.166
98 | NCI-H2126 | 0.317
99 | EMC-BAC-2 | 0.271
100 | NCI-H2085 | 0.216
101 | HCC-366 | 0.482
102 | NCI-H1666 | 0.946
103 | NCI-H596 | 0.642
104 | LK-2 | 0.221
105 | NCI-H2087 | 0.74
106 | SK-MES-1 | 0.168
107 | H3255 | 0.322
108 | COR-L23 | 0.326
109 | NCI-H2170 | 0.486
110 | NCI-H522 | 0.747
111 | SW 900 | 0.252
112 | NCI-H1395 | 0.369
113 | NCI-H1792 | 0.515
114 | NCI-H1793 | 0.358
115 | NCI-H1563 | 0.465
116 | NCI-H1944 | 0.182
117 | ABC-1 | 0.53
118 | NCI-H358 | 0.153

Compound: Cc1cc([C@@H](C)Nc2ccccc2C(=O)O)c2nc(N3CCOCC3)cc(=O)n2c1 [AZD6482] + O=C(CCCCCCC(=O)Nc1ccccc1)NO [Vorinostat] (partner 1 µM)
Test: as above
Conditions: first compound 0.08 µM
Summary of the method: as §1

Row | Cell Line | relative viability
119 | NCI-H2342 | 0.733
120 | NCI-H727 | 1.1
121 | NCI-H1650 | 0.512
122 | NCI-H1993 | 0.742
123 | SW 1573 | 0.766
124 | NCI-H838 | 0.631
125 | LCLC-103H | 0.661
126 | NCI-H520 | 0.599
127 | NCI-H2126 | 0.728
128 | EMC-BAC-2 | 0.534
129 | NCI-H2085 | 0.557
130 | HCC-366 | 0.269
131 | NCI-H1666 | 0.848
132 | NCI-H596 | 0.464
133 | LK-2 | 0.374
134 | NCI-H2087 | 0.465
135 | NCI-H1648 | 0.545
136 | SK-MES-1 | 0.842
137 | H3255 | 0.741
138 | COR-L23 | 0.269
139 | IA-LM | 0.858
140 | NCI-H2170 | 0.742
141 | HCC-44 | 1.08
142 | NCI-H522 | 0.818
143 | SW 900 | 0.38
144 | NCI-H1395 | 0.584
145 | NCI-H1793 | 0.582
146 | NCI-H1944 | 0.544
147 | ABC-1 | 1.11
148 | NCI-H358 | 0.494

Same assay, conditions: first compound 0.253 µM

Row | Cell Line | relative viability
149 | NCI-H2342 | 0.683
150 | NCI-H727 | 1.11
151 | NCI-H1650 | 0.629
152 | NCI-H1993 | 0.73
153 | SW 1573 | 0.681
154 | NCI-H838 | 0.701
155 | LCLC-103H | 0.748
156 | NCI-H520 | 0.467
157 | NCI-H2126 | 0.703
158 | EMC-BAC-2 | 0.413
159 | NCI-H2085 | 0.402
160 | HCC-366 | 0.26
161 | NCI-H1666 | 1.04
162 | NCI-H596 | 0.555
163 | LK-2 | 0.276
164 | NCI-H2087 | 0.81
165 | NCI-H1648 | 0.422
166 | SK-MES-1 | 1.05
167 | H3255 | 0.871
168 | COR-L23 | 0.512
169 | IA-LM | 0.906
170 | NCI-H2170 | 0.695
171 | HCC-44 | 1.17
172 | NCI-H522 | 0.896
173 | SW 900 | 0.357
174 | NCI-H1395 | 0.402
175 | NCI-H1793 | 0.481
176 | NCI-H1944 | 0.498
177 | ABC-1 | 0.877
178 | NCI-H358 | 0.648

Same assay, conditions: first compound 0.8 µM

Row | Cell Line | relative viability
179 | NCI-H2342 | 0.71
180 | NCI-H727 | 1.17
181 | NCI-H1650 | 0.805
182 | NCI-H1993 | 0.569
183 | SW 1573 | 0.654
184 | NCI-H838 | 0.664
185 | LCLC-103H | 0.784
186 | NCI-H520 | 0.496
187 | NCI-H2126 | 0.577
188 | EMC-BAC-2 | 0.526
189 | NCI-H2085 | 0.517
190 | HCC-366 | 0.457
191 | NCI-H1666 | 1.04
192 | NCI-H596 | 0.732
193 | LK-2 | 0.298
194 | NCI-H2087 | 0.98
195 | NCI-H1648 | 0.552
196 | SK-MES-1 | 1.02
197 | H3255 | 0.764
198 | COR-L23 | 0.505
199 | IA-LM | 1.03
200 | NCI-H2170 | 0.767
201 | HCC-44 | 1.28
202 | NCI-H522 | 0.805
203 | SW 900 | 0.528
204 | NCI-H1395 | 0.559
205 | NCI-H1793 | 0.676
206 | NCI-H1944 | 0.609
207 | ABC-1 | 1.01
208 | NCI-H358 | 0.672

Same assay, conditions: first compound 2.53 µM

Row | Cell Line | relative viability
209 | NCI-H2342 | 0.518
210 | NCI-H1650 | 0.437
211 | NCI-H1993 | 0.376
212 | SW 1573 | 0.58
213 | NCI-H838 | 0.54
214 | LCLC-103H | 0.565
215 | NCI-H520 | 0.273
216 | NCI-H2126 | 0.389
217 | EMC-BAC-2 | 0.341
218 | NCI-H2085 | 0.398
219 | HCC-366 | 0.269
220 | NCI-H1666 | 0.813
221 | NCI-H596 | 0.691
222 | LK-2 | 0.384
223 | NCI-H2087 | 0.183
224 | SK-MES-1 | 0.594
225 | H3255 | 0.697
226 | COR-L23 | 0.28
227 | NCI-H2170 | 0.677
228 | HCC-44 | 1.29
229 | NCI-H522 | 0.829
230 | SW 900 | 0.328
231 | NCI-H1395 | 0.385
232 | NCI-H1793 | 0.38
233 | NCI-H1944 | 0.43
234 | ABC-1 | 0.83
235 | NCI-H358 | 0.347

Same assay, conditions: first compound 8 µM

Row | Cell Line | relative viability
236 | NCI-H2342 | 0.48
237 | NCI-H727 | 0.96
238 | NCI-H1650 | 0.632
239 | NCI-H1993 | 0.47
240 | SW 1573 | 0.48
241 | NCI-H838 | 0.538
242 | LCLC-103H | 0.51
243 | NCI-H520 | 0.319
244 | NCI-H2126 | 0.432
245 | EMC-BAC-2 | 0.316
246 | NCI-H2085 | 0.341
247 | HCC-366 | 0.203
248 | NCI-H1666 | 1.02
249 | NCI-H596 | 0.556
250 | LK-2 | 0.258
251 | NCI-H2087 | 0.92
252 | NCI-H1648 | 0.402
253 | SK-MES-1 | 0.684
254 | H3255 | 0.689
255 | COR-L23 | 0.442
256 | IA-LM | 0.854
257 | NCI-H2170 | 0.578
258 | HCC-44 | 1.21
259 | NCI-H522 | 0.759
260 | SW 900 | 0.402
261 | NCI-H1395 | 0.47
262 | NCI-H1793 | 0.404
263 | NCI-H1944 | 0.469
264 | ABC-1 | 0.986
265 | NCI-H358 | 0.56
